Assay results from patent publication US20250313559A1 (Bayer Aktiengesellschaft, priority 2024, published 2025).
Where two headings read alike, the source gives them in different places.

Columns and labels:
[1] = test system: patients with HF and LVEF ≥40%; experiment: […]-HF (Example 2) health status: KCCQ-TSS, NYHA class, EQ-5D-5L; assay type: in vivo, human; details: adjusted for baseline value, geographic region
Description: Kansas City Cardiomyopathy Questionnaire (KCCQ) is a standardized patient reported outcomes (PRO) questionnaire which assesses symptoms, physical and social limitations, and quality of life in patients with heart failure (HF). Patients are asked to recall how their HF impacted their life over a 2-week recall period.
Total HF events was analyzed using an LWYY model in a similar fashion to the primary endpoint. The percentage of participants with improvement in NYHA class from Baseline to Month 12, was analyzed with a logistic regression model including factors for treatment group and stratification levels. Patients that died or are lost to follow-up at month 12 was considered to had not improved. The absolute change from baseline including measurements up to Month 12 of the TSS of the KCCQ, was analyzed by a repeated measures mixed model including the factors treatment group, baseline, visit, baseline-by-visit interaction, and factors for the stratification levels. The comparison assumed a common treatment effect across Month 6, 9 and 12. […] The composite renal endpoint and all-cause mortality was analyzed using a stratified log-rank test for testing and a stratified Cox proportional hazards model for obtaining a point estimate with 95% confidence interval. […]

[2] = test system: patients with heart failure and a left ventricular ejection fraction ≥40%
[3] = No SGLT2i Use at baseline, n = 2,610
[4] = SGLT2i Use at baseline, n = 393

## CCOc1ncc(C)c2c1[C@H](c1ccc(C#N)cc1OC)C(C(N)=O)=C(C)N2 [finerenone, (4S)-4-(4-cyano-2-methoxyphenyl)-5-ethoxy-2,8-dimethyl-1,4-dihydro-1,6-naphthyridine-3-carboxamide]
[1]; bilirubin Tertile 2 0.5-0.6 mg/dL
  Change in KCCQ-TSS from baseline to 12 months, difference in mean (95% CI) finerenone vs placebo: 0.69 (−0.92 to 2.30)
[1]; bilirubin Tertile 3 ≥0.7 mg/dL
  Change in KCCQ-TSS from baseline to 12 months, difference in mean (95% CI) finerenone vs placebo: 3.15 (1.52 to 4.77)
[2]; HFimpEF (history of LVEF<40%)
  Absolute risk reduction, primary outcome: 9.2 per 100 py
[2]; LVEF consistently 40% (no HFimpEF)
  Absolute risk reduction, primary outcome: 2.5 per 100 py
[2]; No SGLT2i Use at baseline
  All-cause death, HR (95% CI) finerenone vs placebo: 0.94 (0.82, 1.07)
  Renal composite endpoint, HR (95% CI) finerenone vs placebo: 1.43 (0.98, 2.08)
  Total worsening HF events, RR (95% CI) finerenone vs placebo: 0.83 (0.71, 0.97)
[2]; [3]
  Renal composite endpoint, Rate (per 100 py): 0.8 per 100 py
  Total worsening HF events, Rate (per 100 py): 13.0 per 100 py
[2]; SGLT2i Use at baseline
  All-cause death, HR (95% CI) finerenone vs placebo: 0.90 (0.64, 1.27)
[2]; [4]
  Renal composite endpoint, Rate (per 100 py): 1.3 per 100 py
  Total worsening HF events, Events: 194
  Total worsening HF events, Rate (per 100 py): 22.0 per 100 py
[2]; at 6 months
  Mean systolic blood pressure lower than in the placebo group: 3.4 mm Hg
[2]; bilirubin Tertile 2 0.5-0.6 mg/dL, finerenone N = 970
  All-cause death, event rate per 100 PY: 6.4 per 100 PY
[2]; bilirubin Tertile 3 ≥0.7 mg/dL, finerenone N = 1,009
  All-cause death, event rate per 100 PY: 6.6 per 100 PY
[2]; both, human, in vivo
  Hyperkalemia leading to Hospitalization - no.: 24
  Number of subjects with a treatment-emergent SAE: Acute kidney injury: 54
  Number of subjects with a treatment-emergent SAE: Anaemia: 34
  Number of subjects with a treatment-emergent SAE: Angina pectoris: 17
  Number of subjects with a treatment-emergent SAE: Angina unstable: 38
  Number of subjects with a treatment-emergent SAE: Atrial fibrillation: 77
  Number of subjects with a treatment-emergent SAE: Cardiac failure: 18
  Number of subjects with a treatment-emergent SAE: Cellulitis: 17
  Number of subjects with a treatment-emergent SAE: Chest pain: 23
  Number of subjects with a treatment-emergent SAE: Chronic obstructive pulmonary disease: 18
  Number of subjects with a treatment-emergent SAE: Fall: 15
  Number of subjects with a treatment-emergent SAE: Femur fracture: 15
  Number of subjects with a treatment-emergent SAE: Gastrointestinal haemorrhage: 17
  Number of subjects with a treatment-emergent SAE: Hyperkalemia: 19
  Number of subjects with a treatment-emergent SAE: Pneumonia: 87
  Number of subjects with a treatment-emergent SAE: Syncope: 25
  Number of subjects with treatment-emergent AE leading to treatment discontinuation: Asthenia: 5
  Number of subjects with treatment-emergent AE leading to treatment discontinuation: Diarrhoea: 4
  Number of subjects with treatment-emergent AE leading to treatment discontinuation: Dyspnoea: 3
  Number of subjects with treatment-emergent AE leading to treatment discontinuation: Hyperkalaemia: 12
  Number of subjects with treatment-emergent AE leading to treatment discontinuation: Hypotension: 3
  Number of subjects with treatment-emergent AE leading to treatment discontinuation: Nausea: 3
  Number of subjects with treatment-emergent AE leading to treatment discontinuation: Renal impairment: 5
  Proportion of patients experiencing 15% decline in eGFR: 20.6%
  Subjects with a treatment-emergent SAE (%): Acute kidney injury: 1.8%
  Subjects with a treatment-emergent SAE (%): Anaemia: 1.1%
  Subjects with a treatment-emergent SAE (%): Angina pectoris: 0.6%
  Subjects with a treatment-emergent SAE (%): Angina unstable: 1.3%
  Subjects with a treatment-emergent SAE (%): Atrial fibrillation: 2.6%
  Subjects with a treatment-emergent SAE (%): Cardiac failure: 0.6%
  Subjects with a treatment-emergent SAE (%): Cellulitis: 0.6%
  Subjects with a treatment-emergent SAE (%): Chest pain: 0.8%
  Subjects with a treatment-emergent SAE (%): Chronic obstructive pulmonary disease: 0.6%
  Subjects with a treatment-emergent SAE (%): Coronary artery disease: 0.7%
  Subjects with a treatment-emergent SAE (%): Fall: 0.5%
  Subjects with a treatment-emergent SAE (%): Femur fracture: 0.5%
  Subjects with a treatment-emergent SAE (%): Gastrointestinal haemorrhage: 0.6%
  Subjects with a treatment-emergent SAE (%): Hyperkalemia: 0.6%
  Subjects with a treatment-emergent SAE (%): Pneumonia: 2.9%
  Subjects with a treatment-emergent SAE (%): Syncope: 0.8%
  Subjects with treatment-emergent AE leading to treatment discontinuation (%): Asthenia: (0.2%)
  Subjects with treatment-emergent AE leading to treatment discontinuation (%): Diarrhoea: (0.1%)
  Subjects with treatment-emergent AE leading to treatment discontinuation (%): Dyspnoea: (0.1%)
  Subjects with treatment-emergent AE leading to treatment discontinuation (%): Hyperkalaemia: (0.4%)
  Subjects with treatment-emergent AE leading to treatment discontinuation (%): Hypotension: (0.1%)
  Subjects with treatment-emergent AE leading to treatment discontinuation (%): Nausea: (0.1%)
  Subjects with treatment-emergent AE leading to treatment discontinuation (%): Renal impairment: (0.2%)
  Systolic blood pressure <100 mm Hg - no.: 538
[2]; by one month, compared with placebo
  Systolic BP, mean difference: −2.8 mm Hg
[2]; early after randomization
  Change in bilirubin during follow-up: sustained reduction in bilirubin
[2]; finerenone group
  Change in KCCQ clinical summary score at 6, 9 and 12 mo (least squares mean change): +8.0 ± 0.3
  Death from any cause - %: (16.4%)
  First worsening heart failure event or death from cardiovascular causes - %: (20.8%)
  Improvement in NYHA class from baseline to 12 mo - %: (18.6%)
  Kidney composite outcome - %: (2.5%)
[2]; finerenone group N = 3,003
  Death from cardiovascular causes - %: (8.1%)
[2]; n = 2,993
  Number of subjects with AE of death or leading to death: COVID-19: 7
  Number of subjects with AE of death or leading to death: COVID-19 pneumonia: 9
  Number of subjects with AE of death or leading to death: Cardiac arrest: 12
  Number of subjects with AE of death or leading to death: Cardiac failure: 6
  Number of subjects with AE of death or leading to death: Death: 70
  Number of subjects with AE of death or leading to death: Lung neoplasm malignant: 7
  Number of subjects with AE of death or leading to death: Pneumonia: 27
  Number of subjects with AE of death or leading to death: Respiratory failure: 7
  Number of subjects with AE of death or leading to death: Sepsis: 19
  Number of subjects with AE of death or leading to death: Septic shock: 12
  Number of subjects with AE of death or leading to death: Sudden cardiac death: 18
  Number of subjects with AE of death or leading to death: Sudden death: 20
  Number of subjects with a treatment-emergent SAE: COVID-19: 69
  Number of subjects with a treatment-emergent SAE: COVID-19 pneumonia: 28
  Number of subjects with a treatment-emergent SAE: Death: 29
  Number of subjects with a treatment-emergent SAE: Sepsis: 25
  Number of subjects with a treatment-emergent SAE: Sudden death: 16
  Number of subjects with a treatment-emergent SAE: Urinary tract infection: 29
  Subjects with AE of death or leading to death (%): COVID-19: (0.2%)
  Subjects with AE of death or leading to death (%): COVID-19 pneumonia: (0.3%)
  Subjects with AE of death or leading to death (%): Cardiac arrest: (0.4%)
  Subjects with AE of death or leading to death (%): Cardiac failure: (0.2%)
  Subjects with AE of death or leading to death (%): Death: (2.3%)
  Subjects with AE of death or leading to death (%): Lung neoplasm malignant: (0.2%)
  Subjects with AE of death or leading to death (%): Pneumonia: (0.9%)
  Subjects with AE of death or leading to death (%): Respiratory failure: (0.2%)
  Subjects with AE of death or leading to death (%): Sepsis: (0.6%)
  Subjects with AE of death or leading to death (%): Septic shock: (0.4%)
  Subjects with AE of death or leading to death (%): Sudden cardiac death: (0.6%)
  Subjects with AE of death or leading to death (%): Sudden death: (0.7%)
  Subjects with a treatment-emergent SAE (%): COVID-19: 2.3%
  Subjects with a treatment-emergent SAE (%): COVID-19 pneumonia: 0.9%
  Subjects with a treatment-emergent SAE (%): Death: 1.0%
  Subjects with a treatment-emergent SAE (%): Sepsis: 0.8%
  Subjects with a treatment-emergent SAE (%): Sudden death: 0.5%
  Subjects with a treatment-emergent SAE (%): Urinary tract infection: 1.0%
[2]; through the end of study
  Hyperkalemia leading to Death - %: (0%)
  Hyperkalemia leading to Death - no.: 0
[2]; treatment emergent
  Hyperkalemia leading to Death - %: (0%)
  Hyperkalemia leading to Death - no.: 0
